{"source": "paper PMC10824102", "about": "“Identification of small molecule inhibitors of G3BP-driven stress granule formation” (The Journal of Cell Biology, 2024)", "assay_type_in_all_cases": "cell-based", "key": {"[1]": {"tested_on": "stress granule formation in U2OS cells stably expressing G3BP1-GFP", "assay": "Preincubation, heat shock-induced stress granule formation in U2OS", "details": "50 μM, 20 min pretreatment, 43°C heat shock, 15 min post heat shock", "protocol": "(§1) For preincubation of compounds, U2OS or HeLa cells stably expressing G3BP1-GFP or CRISPR-modified cells expressing TDP-43-GFP/G3BP1-GFP were seeded into eight-well Lab-Tek chambered cover glass (Nunc). At least 20 min prior to the experiment, 1 ml FluoroBrite DMEM media (Gibco) supplemented with 10% FBS and 4 mM L-glutamine was combined with 0.1% DMSO or G3I compound (5, 10, or 50 μM). This solution was vortexed for 5 s, added to the cells at 250 μl per well, and left to incubate on the microscope for 20 min. Conditions were maintained at 37°C and 5% CO2 using a Bold Line Cage Incubator (Okolab) and an objective heater (Bioptechs). During this incubation time, 5 xy fields were stored per condition, with each field having ∼20–30 cells within it. After the 20-min incubation, 250 μl of 500 μM or 1 mM (2×) sodium arsenite (Sigma-Aldrich) diluted in the FluoroBrite media with an appropriate amount of G3I compound or DMSO was added to the sample. Imaging began immediately after, with images at each xy field being taken every 1 min. For heat shock experiments, U2OS G3BP1-GFP-expressing cells were seeded into a 35-mm glass bottom dish (MatTek). Prior to the experiment, 1.5 ml FluoroBrite DMEM media (Gibco) supplemented with 10% FBS and 4 mM L-glutamine was combined with 0.1% DMSO or 50 μM G3I compound. The sample was incubated on the environmentally controlled microscope for 20 min. […]"}, "U2OS cells": {"tested_on": "U2OS cells", "assay": "Cytotoxicity assay (CellTiter-Glo, ATP levels)", "details": "24 h, ATP levels by luciferase signal", "protocol": "U2OS (HTB-96), HEK293T (CRL-3216), and HeLa (CCL-2) cells were originally purchased from ATCC and periodically authenticated by short tandem repeat (STR) profiling. Cells were grown in Dulbecco’s modified Eagle’s medium (DMEM) supplemented with 10% fetal bovine serum (FBS), 1% penicillin/streptomycin, and 1% L-glutamine. Cells were counted using ADAM-CellT (NanoEntek), plated, and transfected using either Lipofectamine 3000 (L3000008; Thermo Fisher Scientific) or Viafect (E4981; Promega) for transient overexpression according to the manufacturer’s instructions. Cytotoxicity was assayed using CellTiter-Glo 2.0 reagent (Promega) according to the manufacturer’s instructions."}, "[2]": {"tested_on": "eIF3η and PABPC1 puncta in U2OS cells", "assay": "Immunofluorescence of additional stress granule markers after preincubation", "details": "50 μM pretreatment, 250 μM NaAsO2 for 30 min", "protocol": "(§2) U2OS cells or U2OS cells stably expressing G3BP1-GFP were seeded in four-well Lab-Tek II Chambered Coverglass (1055360; Thermo Fisher Scientific). For preincubation experiments, cells were treated with 50 μM G3I compound for 20 min or 24 h, followed by 250 μM NaAsO2 and 50 μM G3I compound for 30 min. For posttreatment, cells were treated with 250 μM NaAsO2 for 30 min, followed by treatment with 250 μM NaAsO2 and 50 μM G3I compound for 5 min. Cells were then washed twice with PBS and fixed with 4% PFA in PBS for 10 min. Cells were then washed three times with PBS (5 min between each wash), permeabilized with 0.5% Triton X-100 in PBS for 10 min, and washed twice with PBS. Next, cells were blocked for 1 h with 3% BSA in PBS at room temperature, followed by incubation with primary antibodies diluted in 3% BSA overnight at 4°C. Cells were then washed three times with PBS (5 min between each wash) and incubated with secondary antibodies and Hoechst diluted in 3% BSA at room temperature for 1 h. Cells were then washed three times with PBS (5 min between each wash) and imaged. […]"}, "[3]": {"tested_on": "TDP-43 accumulation in stress granules in U2OS cells", "assay": "TDP-43 immunofluorescence after preincubation and arsenite", "details": "50 μM pretreatment, 250 μM NaAsO2 for 30 min", "protocol": "as §2"}, "[4]": {"tested_on": "TDP-43 localization to stress granules in CRISPR-modified U2OS cells", "assay": "Live imaging of GFP-TDP-43 and mRuby3-G3BP1 in CRISPR-modified U2OS cells", "details": "50 μM pretreatment, 250 μM NaAsO2 for 30 min", "protocol": "as §1"}}, "data": [{"smiles": "COCCC(NC(=O)C(C)NC(=O)C(NC(=O)C(NC(=O)C(F)CC(C)(C)C)C(C)(C)O)C(C)c1ccccc1)C(=O)N(C)Cc1ccccc1", "note": "(stereo not shown) [G3Ia]", "values": [{"measurement": "reduction of stress granule formation compared with inactive enantiomer", "setting": "[1]", "value": "~79", "unit": "%"}, {"measurement": "cell-based toxicity", "setting": "U2OS cells", "value": "do not appear to induce cellular toxicity or growth phenotypes"}, {"measurement": "eIF3η and PABPC1 puncta", "setting": "[2]", "value": "reduced eIF3η and PABPC1 puncta"}, {"measurement": "TDP-43 accumulation in stress granules", "setting": "[3]", "value": "not"}]}, {"smiles": "CC(NC(=O)C(NC(=O)C(NC(=O)CCC(C)(C)C)C(C)(C)O)C(C)c1ccccc1)C(=O)N1CCCC1c1ccccc1", "note": "(stereo not shown) [G3Ib]", "values": [{"measurement": "reduction of stress granule formation compared with inactive enantiomer", "setting": "[1]", "value": "~82", "unit": "%"}, {"measurement": "TDP-43 localization to stress granules", "setting": "[4]", "value": "not"}, {"measurement": "cell-based toxicity", "setting": "U2OS cells", "value": "do not appear to induce cellular toxicity or growth phenotypes"}, {"measurement": "eIF3η and PABPC1 puncta", "setting": "[2]", "value": "reduced eIF3η and PABPC1 puncta"}, {"measurement": "TDP-43 accumulation in stress granules", "setting": "[3]", "value": "not"}]}, {"smiles": "CC(NC(=O)C(NC(=O)C(NC(=O)CCC(C)(C)C)C(C)(C)O)C(C)c1ccccc1)C(=O)N1CCCC1c1ccccc1", "note": "(stereo not shown) [G3Ib′]", "values": [{"measurement": "TDP-43 localization to stress granules", "setting": "[4]", "value": "a small proportion of TDP-43 localized to stress granules"}]}]}
